# Assay results reported in PMC7170498, “Targeted alpha therapy using astatine (^211At)-labeled phenylalanine: A preclinical study in glioma bearing mice” (Oncotarget, 2020).
# Columns and labels:
# [1] = Biodistribution and iodine blocking effect in normal ICR mice; assay type: in vivo, mouse; conditions: for residence time in major organs (meta- versus para-): intravenous
# Procedure: For the biodistribution study, para- or meta-^211At-PA (0.53 ± 0.04 MBq) was injected into normal male ICR mice (n = 18, 9 weeks old, body weight = 37.7 ± 1.3 g). The mice were sacrificed by euthanasia at 1, 3, and 24 hr post-injection. For the iodine blocking study, normal male ICR mice (n = 6, 9 weeks old, body weight = 37.9 ± 0.9 g) were fed with 2-week iodine-restricted diet. […] The mice were euthanized 3 hr post-administration of para-^211At-PA (0.5 MBq) and dissected.
# The major organs (brain, thyroid gland, salivary gland, heart, lung, esophagus, liver, stomach, small intestine, large intestine, kidney, adrenal gland, pancreas, spleen, and testes) and the blood were collected from each mouse, and the radioactivity and weight of each sample were measured using an AccuFlex γ7000 device (Hitachi, Aloka, Japan). Radioactivity counts were normalized by calibration with a standard solution of ^211At. The residence time (hr) was calculated using the trapezoidal method without decay correction.
# [2] = Stability of the radiolabeled products in vials; assay type: physicochemical; conditions: for 24 hr
# Procedure: Ascorbic acid, para-borono-L-phenylalanine (para-BPA), meta-borono-D, L-phenylalanine (meta-BPA), N-bromosuccinimide (NBS), and an injectable solution of 7% sodium hydrogen carbonate (7% NaHCO3) were purchased from Nacalai Tesque (Kyoto, Japan). For the experiments, 1 mg of para-BPA (or meta-BPA) was dissolved in 0.1 mL of 7% NaHCO3. Next, 0.1 mL of the 1% (w/v) para-BPA (or meta-BPA) solution and an aliquot of ^211At aqueous solution (10–20 MBq) were poured into a glass vial, stirred, and mixed with 30 μL of an aqueous solution of 0.4% (w/v) NBS for 30 min at room temperature. Finally, 30 μL of an aqueous solution of 3% (w/v) ascorbic acid was added to the mixture to stop the oxidation reaction, and the mixture was purified using solid-phase extraction. The purified para-^211At-PA or meta-^211At-PA was then analyzed using a high-performance liquid chromatography system (Shimazdu, Kyoto) equipped with a reverse-phase Cosmosil column (5C18 MS2, 150 mm × 4.6 mm; Nacalai Tesque). The products were eluted using a gradient solvent system (0–100% acetonitrile in water) for 20 min and then measured using a gamma-ray detector (GABI star, Elysia-raytest, Germany) and a UV detector at 254 nm.
# thyroid gland = conditions: ^211At-astatide deastatinated from ^211At-PA; cited from earlier work
# [3] = biological target: T1, L-type amino acid transporter-1 (LAT1) (Homo sapiens, UniProt Q01650); test: Transport of para-^211At-PA into Xenopus oocytes expressing LAT1 (compared with LAT2); assay type: cell-based; conditions: Xenopus oocytes co-expressing 4F2hc; choline buffer; 5, 15, 45 min
# T1 construct: expressed in transfected cells; host or cells: defolliculated Xenopus oocytes injected with polyadenylated cRNA (25 ng/oocyte)
# Procedure: Supplementary Figure 1 lists the cDNAs of human transporters used in this study. First, cRNAs were synthesized in vitro from linearized plasmids using the mMessage mMachine Kit, polyadenylated with a Poly (A) Tailing Kit, and purified with a MEGAclear Kit (all kits: ThermoFisher Scientific, Waltham, MA, USA) according to the manufacturer’s protocols. Next, defolliculated Xenopus oocytes were injected with polyadenylated cRNA (25 ng/oocyte) to induce expression. An equimolar amount of 4F2hc cRNA was co-injected to ensure the functional expression of LAT1 and LAT2 [24–26].
# Amino acid transport was measured in the oocytes 2–4 days after cRNA injection, as previously described. Briefly, the oocytes were incubated at room temperature with 500 μL of uptake buffer (choline uptake solution: 100 mM (CH3)3N (Cl) CH2CH2OH, 2 mM KCl, 1.8 mM CaCl2.2H2O, 1 mM MgCl2, 5 mM HEPES, pH 7.5) containing ^211At-PA (approximately 10kBq/oocyte). Radioactivity was determined using a gamma counter. Nine to 11 oocytes were used for each transport measurement. Two separate experiments were performed using different batches of oocytes to confirm the reproducibility of the results.
# C6 glioma xenograft [4] = test: Planar imaging and tumor dosimetry in C6 glioma-bearing mice; assay type: in vivo, mouse
# Procedure: (§1) All animal experiments were performed in compliance with the guidelines of the Institute of Experimental Animal Sciences. The protocol was approved by the Animal Care and Use Committee of the Osaka University Graduate School of Medicine. Normal ICR, normal C57BL/6, and nude mice (male) were purchased from Japan SLC Inc. (Hamamatsu, Japan). All animals were housed under a 12-h light/12-hr dark cycle, and given free access to food and water. C6 glioma cells (5.0 × 10^6 cells) or GL-261 cells (1.0 × 10^7 cells) were suspended in 100 μL of culture medium and Matrigel (1:1 ratio; BD Biosciences, Franklin Lakes, NJ, USA). Tumor xenograft and allograft models were prepared via the subcutaneous injection of this C6 glioma cell suspension into each immunodeficient nude mouse (n = 12) and the GL-261 cell suspension into each immunocompetent C57BL/6 mouse (n = 12), respectively.
# (§2) Para-^211At-PA was injected into mice bearing C6 glioma xenografts (n = 9; 15 weeks old; body weight = 23.8 ± 1.2 g) and GL261 allografts (n = 7; 8 weeks old; body weight = 23.6 ± 1.2 g) at 23 and 20–21 days after implantation, respectively. […] The tumor uptake was calculated as the percent injected dose (%ID). […] The tumor sizes (mm^3) were monitored using a caliper, calculated using the following elliptical sphere model equation, and compared between the injected and control groups of mice.
# GL261 allograft = test: Treatment effect in GL261 allograft mice; assay type: in vivo, mouse
# Procedure: as §1
# as §2, with “mice. […]” for “mice.”
# [5] = test system: intracranial glioblastomas; set-up: method as in PMID 24036694; conditions: intravenous treatment; rats with intracranial glioblastomas; cited from earlier work
# C6 glioma xenograft [6] = test: Treatment effect in C6 glioma xenograft mice; assay type: in vivo, mouse; conditions: for tumor size ratio (relative to the control): 3 weeks post-injection
# Procedure: as §1
# Para-^211At-PA was injected into mice bearing C6 glioma xenografts (n = 9; 15 weeks old; body weight = 23.8 ± 1.2 g) and GL261 allografts (n = 7; 8 weeks old; body weight = 23.6 ± 1.2 g) at 23 and 20–21 days after implantation, respectively. C6 glioma xenograft mice were divided into four groups according to the injected dose: 1 MBq (n = 3, 1.19 ± 0.05 MBq), 0.5 MBq (n = 3, 0.55 ± 0.02 MBq), 0.1 MBq (n = 3, 0.09 ± 0.03 MBq), and control mice without para-^211At-PA administration (n = 3). GL261 allograft mice were divided into two groups: 1 MBq (n = 7, 1.07 ± 0.07 MBq) and control (n = 5). Planar imaging was performed using a gamma camera system (E-cam, Siemens) at 30 min and 3 hr after para-^211At-PA administration. This system targeted the X-rays emitted from the daughter nuclide, ^211Po (energy window: 79 keV ± 20%) (6). Image analysis was performed using AMIDE software (ver. 1.0.4). The tumor uptake was calculated as the percent injected dose (%ID). The absorbed dose (Gy) in the tumor was estimated according to a previous report with the normalization to the tumor volume in the calculation process. The tumor sizes (mm^3) were monitored using a caliper, calculated using the following elliptical sphere model equation, and compared between the injected and control groups of mice.
# V = 4/3*π*a^2*b (V: volume of the tumor (mm^3), a: shorter radius (mm) and b: longer radius (mm))
# glioblastoma = test system: glioblastoma; set-up: method as in PMID 19269895; conditions: patients with glioblastoma after temozolomide therapy; cited from earlier work
# GL261 cells = test: In vitro cellular uptake and inhibition assay of ^211At-PA; assay type: cell-based, murine; conditions: Mus musculus, 20 mM BCH added 5 min before para-^211At-PA, compared to baseline, read-out: inhibition of ^211At-PA uptake by addition of BCH
# Procedure: (§3) The C6 rat glioma cell line was provided by RIKEN BRC (Tsukuba, Japan) and cultured in F-12K medium (Gibco, Grand Island, NY, USA) containing 10% fetal bovine serum (FBS; Sigma-Aldrich). The U-87 MG human glioblastoma cell line was purchased from American Type Culture Collection (Manassas, VA, USA) and cultured in Modified Eagle’s medium (MEM; Sigma-Aldrich, St. Louis, MO, USA) containing 1% Non Essential Amino Acids (NEAA) + 1 mM Sodium Pyruvate (NaP) and 10% FBS. The GL261 murine glioma cell line was provided by the In Vivo Cellular and Molecular Imaging Lab at Vrije Universiteit, Brussels and cultured in high-glucose Dulbecco’s MEM (DMEM; Wako Pure Chemical, Osaka, Japan) containing 10% FBS. All cells were maintained at 37°C in a humidified incubator containing 5% CO2 and were washed with phosphate-buffered saline (PBS) and harvested with trypsin as necessary. LAT1 expression of these cells were confirmed in previous studies.
# (§4) Initially, the cells were seeded onto a 24-well plate (density: 1 × 10^5/well) and cultured for 2 days. […] Counts per minute (CPM) of the samples were measured by gamma counter. The protein concentrations were measured using the BCA protein assay kit (FUJIFILM Wako Pure Chemical) and a plate reader (Multiskan FC, ThermoFisher Scientific, USA). […]
# U-87MG cells = test: as above; assay type: cell-based; conditions: Homo sapiens, 20 mM BCH added 5 min before para-^211At-PA, compared to baseline, read-out: inhibition of ^211At-PA uptake by addition of BCH
# Procedure: as §3, §4
# C6 glioma cells = test: as above; assay type: cell-based; conditions: Rattus norvegicus, 20 mM BCH added 5 min before para-^211At-PA, compared to baseline, read-out: inhibition of ^211At-PA uptake by addition of BCH
# Procedure: as §3, §4
# [7] = NaI 10 mg/kg i.v. 24 and 3 hr before, 3 hr post-administration
# T1 sequence (Q01650 whole entry): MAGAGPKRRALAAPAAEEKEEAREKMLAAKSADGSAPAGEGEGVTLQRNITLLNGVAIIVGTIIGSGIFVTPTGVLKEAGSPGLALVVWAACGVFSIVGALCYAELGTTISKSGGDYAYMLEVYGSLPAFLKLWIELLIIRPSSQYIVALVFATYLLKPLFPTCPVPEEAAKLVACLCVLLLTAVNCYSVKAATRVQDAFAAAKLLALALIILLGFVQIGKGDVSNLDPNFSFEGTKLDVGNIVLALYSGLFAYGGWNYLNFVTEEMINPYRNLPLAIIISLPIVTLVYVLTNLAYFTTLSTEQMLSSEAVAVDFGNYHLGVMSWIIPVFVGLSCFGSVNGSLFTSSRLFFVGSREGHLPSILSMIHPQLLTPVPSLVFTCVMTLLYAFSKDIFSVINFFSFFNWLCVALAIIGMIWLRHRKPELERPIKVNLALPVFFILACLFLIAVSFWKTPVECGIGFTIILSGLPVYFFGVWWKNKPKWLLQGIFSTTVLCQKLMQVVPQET
# T1 sequence (P08195 102-630 partner): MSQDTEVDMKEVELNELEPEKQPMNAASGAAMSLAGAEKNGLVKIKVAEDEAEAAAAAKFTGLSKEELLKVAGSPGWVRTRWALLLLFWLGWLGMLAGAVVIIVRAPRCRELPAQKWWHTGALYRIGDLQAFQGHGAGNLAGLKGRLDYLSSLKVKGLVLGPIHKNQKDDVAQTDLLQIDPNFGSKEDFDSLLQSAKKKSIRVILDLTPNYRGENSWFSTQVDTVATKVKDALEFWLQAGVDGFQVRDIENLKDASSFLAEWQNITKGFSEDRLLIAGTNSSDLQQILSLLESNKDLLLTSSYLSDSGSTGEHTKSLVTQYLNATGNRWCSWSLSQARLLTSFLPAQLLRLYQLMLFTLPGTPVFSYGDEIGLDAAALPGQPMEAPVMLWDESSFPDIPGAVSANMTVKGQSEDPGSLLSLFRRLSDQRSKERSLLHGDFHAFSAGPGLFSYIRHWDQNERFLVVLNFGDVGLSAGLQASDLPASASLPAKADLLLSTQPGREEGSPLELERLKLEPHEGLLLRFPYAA
structure (smiles),measurement,setting,value
N[C@@H](Cc1cccc([211At])c1)C(=O)O [meta-^211At-PA],residence time in major organs (meta- versus para-),[1],comparable results
same,stability in vials,[2],remained stable
[211AtH] [^211At-astatide],reduction of thyroid uptake following pre-administration of iodine,thyroid gland,80%
"N[C@@H](Cc1ccc([211At])cc1)C(=O)O [para-^211At-PA, ^211At-para-astato-L-PA]",transport into oocytes by LAT1 compared with LAT2,[3],Significantly greater transport
same,tumor uptake (planar imaging),C6 glioma xenograft [4]; 30 min post-injection,3.7 ± 0.8 %ID
same,tumor uptake (planar imaging),C6 glioma xenograft [4]; 3 hr post-injection,1.5 ± 0.2 %ID
same,relative tumor size,"GL261 allograft; 1 MBq, day 32",0.24
same,changes in body weights versus control mice,GL261 allograft; GL261 allograft model,No significant differences
same,accumulation in the heart and spleen with iodine blocking,[1]; [7],increased accumulation
same,decrease in accumulation in the thyroid by iodine blocking,[1]; [7],81%
same,residence time in major organs (meta- versus para-),[1],comparable results
same,stability in vials,[2],remained stable
same,health conditions and survival durations,[5],improved the health conditions and enhanced the survival durations
same,tumor size ratio (relative to the control),C6 glioma xenograft [6]; 0.1 MBq,0.60
same,tumor size ratio (relative to the control),C6 glioma xenograft [6]; 0.5 MBq,0.40
same,tumor size ratio (relative to the control),C6 glioma xenograft [6]; 1 MBq,0.25
same,changes in body weights versus control mice,C6 glioma xenograft [6]; C6 glioma xenograft model,No significant differences
Cn1nnc2c(C(N)=O)ncn2c1=O [temozolomide],5-year overall survival rate,glioblastoma,9.8%
"NC1(C(=O)O)CC2CCC1C2 (stereo not drawn) [BCH, 2-aminobicyclo-(2,2,1)-heptane-2-carboxylic acid]",inhibition at 20000 µM,GL261 cells,12.6 ± 2%
same,inhibition at 20000 µM,U-87MG cells,27.6 ± 1.1%
same,inhibition at 20000 µM,C6 glioma cells,12.2 ± 0.8%
